Patent EP4435060A1, “SILICON PHTHALOCYANINE AND TRIBENZOPHTHALOCYANINE DYES AND THEIR USE IN DIAGNOSIS AND THERAPY” (Albert-Ludwigs-Universität Freiburg, priority 2023, dated 2024)

How the values were obtained:
[1] = UV/VIS absorption spectra; assay type: physicochemical; details: for λmax (UV/VIS spectrum): in H2O, 5 - 16 µM (Figure 13) or 4 - 15 µM (Figure 14); for bathochromic shift compared to the absorption maximum of Li-Cor-A: versus λmax = 680 nm
[2] = test system: prostate cancer cells; test: PIT controls on the prostate cancer cell lines of Figure 16E (free dye; conjugate without irradiation); assay type: cell-based, human; details: equimolar concentrations of free dye, 32 J/cm^2 red light, in words
Experimental: 2.5*10^5 cells were seeded per well in 35 mm cell culture dishes (Thermo Fischer Scientific) and cultivated for 24 h in the incubator (37°C, 5% CO2). On the next day, cell culture medium was removed and fresh medium containing the appropriate treatment (medium, 10 µg/ml antibody, 10 µg/ml conjugate or the equimolar amount of free dye) was administered to the cells. After incubation (37°C, 5% CO2, 24h), the cells were washed with 1x PBS and irradiated with a red light-emitting diode (LED), which emits light at λmax = 680 nm (L690-66-60, Marubeni, Tokyo, Japan) or a LED, which emits light at (λmax = 780 nm) (L780-66-60-550) at various mean irradiation doses. Power densities were quantified with an optical power meter (PM 100, Thorlabs, Newton, USA). After 24h, cell viability was analyzed using the vital dye erythrosine b (Logos Biosystems, Gyeonggi-do, South Korea) and the Neubauer Counting Chamber. Significance of the data was calculated with the Student's t test (unpaired, parametric with Welch's […]) using the GraphPad Prism 7 software (GraphPad Software Inc., San Diego, USA).

Substance: 2-(4-Iodophenoxy)-29,31-bis[(3,4,5-tris{[1-(sodium 3-sulfonatopropyl)-1,2,3-triazol-4-yl]methoxy}phenyl)methoxy]silanediyl-29H,31H-silicon tribenzophthalocyanine [compound 31]
- λalmost max (UV/VIS spectrum) ([1]; 4 - 15 µM in H2O, pathlength = 1 cm): 765 nm
- λmax (UV/VIS spectrum) ([1]; pathlength = 1 cm): 795 nm

Substance: 2-(4-[4-({[7-oxo-7-(perfluorophenoxy) heptyl]ca rbamoyl} oxy) but-1-yn-1-yl]phenoxy)-29,31-bis[(3,4,5-tris{[1-(sodium 3-sulfonatopropyl)-1,2,3-triazol-4-yl]methoxy}phenyl)methoxy]silanediyl-29H,31H-silicon phthalocyanine [WB692-LB2]
- absorption maximum λmax in the UV/VIS spectrum [1]: 692 nm
- bathochromic shift compared to the absorption maximum of Li-Cor-A [1]: 12 nm

Substance: 2-({[({4-[(2,5-Dihydro-1H-2,5-dioxopyrrol-1-yl)oxy]-4-oxobut-1-yl}amino)-carbonyloxy]but-1-ynyl}phenoxy)-29,31-bis[(3,4,5-tris{[1-(sodium 3-sulfonatopropyl)-1,2,3-tri-azol-4-yl]methoxy}phenyl)methoxy]silanediyl-29H,31H-silicon tribenzophthalocyanine [WB795-LB1]
- absorption maximum λmax in the UV/VIS spectrum [1]: 795 nm
- bathochromic shift compared to the absorption maximum of Li-Cor-A [1]: 115 nm

Substance: 2-({[({6-[(2,5-Dihydro-1H-2,5-dioxopyrrol-1-yl)oxy]-6-oxohex-1-yl}amino)-carbonyloxy]but-1-ynyl}phenoxy)-29,31-bis[(3,4,5-tris{[1-(sodium 3-sulfonatopropyl)-1,2,3-tri-azol-4-yl]methoxy}phenyl)methoxy]silanediyl-29H,31H-silicon phthalocyanine [WB692-LB1]
- absorption maximum λmax in the UV/VIS spectrum [1]: 692 nm
- bathochromic shift compared to the absorption maximum of Li-Cor-A [1]: 12 nm

Substance: 2-[({5-[(1H-2,5-Dioxopyrrol-1-yl)pent-1-yl]amino]carbonylamino)}but-1-yn-yl)phenoxy]-29,31-bis[(3,4,5-tris{[1-(sodium 3-sulfonatopropyl)-1,2,3-triazol-4-yl]methoxy}-phenyl)methoxy]silanediyl-29H,31H-silicon tribenzophthalocyanine [WB795-CB1]
- absorption maximum λmax in the UV/VIS spectrum [1]: 795 nm
- bathochromic shift compared to the absorption maximum of Li-Cor-A [1]: 115 nm

Substance: 2-[({5-[(1H-2,5-Dioxopyrrol-1-yl)pent-1-yl]amino]carbonylamino)}but-1-yn-yl)phenoxy]-29,31-bis[(3,4,5-tris{[1-(sodium 3-sulfonatopropyl)-1,2,3-triazol-4-yl]methoxy}-phenyl)methoxyjsilanediyl-29H,31H-silicon phthalocyanine [WB692-CB2]
- absorption maximum λmax in the UV/VIS spectrum [1]: 692 nm
- bathochromic shift compared to the absorption maximum of Li-Cor-A [1]: 12 nm

Substance: 2-[({5-[(1H-2,5-Dioxopyrrol-1-yl)pent-1-yl]amino]carbonyloxy)}but-1-yn-yl)phenoxy]-29,31-bis[(3,4,5-tris{[1-(sodium 3-sulfonatopropyl)-1,2,3-triazol-4-yl]methoxy}-phenyl)methoxyjsilanediyl-29H,31H-silicon phthalocyanine [WB692-CB1]
- viability of irradiated cells incubated with free dye [2]: remained alive
- absorption maximum λmax in the UV/VIS spectrum [1]: 692 nm
- λmax (UV/VIS spectrum) ([1]; pathlength = 1 cm): 692 nm
- bathochromic shift compared to the absorption maximum of Li-Cor-A [1]: 12 nm
